In ChEMBL document CHEMBL1130081, “Inhibition of human telomerase by a G-quadruplex-interactive compound” (J Med Chem, 1997):

Target: Telomerase reverse transcriptase (Homo sapiens, UniProt O14746)
Experiment: Inhibitory concentration against human telomerase.

Sequence of Telomerase reverse transcriptase (O14746 whole entry): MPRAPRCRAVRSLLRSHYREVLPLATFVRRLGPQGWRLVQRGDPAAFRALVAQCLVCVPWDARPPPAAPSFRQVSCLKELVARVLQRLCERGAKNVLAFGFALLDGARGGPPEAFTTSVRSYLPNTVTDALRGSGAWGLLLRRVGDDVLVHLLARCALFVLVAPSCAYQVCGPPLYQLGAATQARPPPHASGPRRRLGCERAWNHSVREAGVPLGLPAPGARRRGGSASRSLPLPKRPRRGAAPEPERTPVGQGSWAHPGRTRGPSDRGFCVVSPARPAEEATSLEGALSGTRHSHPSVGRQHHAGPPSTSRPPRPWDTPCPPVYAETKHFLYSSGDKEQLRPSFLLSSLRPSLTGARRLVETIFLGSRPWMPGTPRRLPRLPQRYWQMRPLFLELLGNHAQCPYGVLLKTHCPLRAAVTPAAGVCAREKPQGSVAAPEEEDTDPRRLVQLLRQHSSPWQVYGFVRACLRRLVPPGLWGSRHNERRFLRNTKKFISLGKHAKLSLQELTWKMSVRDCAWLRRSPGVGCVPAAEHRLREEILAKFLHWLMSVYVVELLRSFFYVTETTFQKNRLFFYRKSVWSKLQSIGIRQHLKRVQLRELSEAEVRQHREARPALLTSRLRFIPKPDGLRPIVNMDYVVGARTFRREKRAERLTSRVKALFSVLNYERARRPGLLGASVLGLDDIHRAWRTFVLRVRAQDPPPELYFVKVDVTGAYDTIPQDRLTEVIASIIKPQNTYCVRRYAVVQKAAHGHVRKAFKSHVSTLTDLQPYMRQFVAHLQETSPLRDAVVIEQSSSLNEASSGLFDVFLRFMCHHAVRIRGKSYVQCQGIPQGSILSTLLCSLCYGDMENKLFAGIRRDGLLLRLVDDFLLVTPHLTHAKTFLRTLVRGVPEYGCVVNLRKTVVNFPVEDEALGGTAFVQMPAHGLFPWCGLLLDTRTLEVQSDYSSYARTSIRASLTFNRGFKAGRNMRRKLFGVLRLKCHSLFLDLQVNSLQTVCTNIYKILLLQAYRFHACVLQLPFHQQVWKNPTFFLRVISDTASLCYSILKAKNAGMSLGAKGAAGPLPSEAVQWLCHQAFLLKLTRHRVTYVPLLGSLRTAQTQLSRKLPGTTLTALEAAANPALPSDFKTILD

C[N+]1(CCC(=O)Nc2ccc3c(c2)C(=O)c2ccc(NC(=O)CC[N+]4(C)CCCCC4CO)cc2C3=O)CCCCC1CO (stereo unspecified)
IC50: 23 µM
